From the NIST ThermoML archive (doi:10.1016/j.jct.2017.10.004)

Tests used:
[1] = xn = mol fraction of the nth substance listed; conditions: 100 kPa, Liquid, x2 = 0; for viscosity: Capillary tube (Ostwald / Ubbelohde) method; for mass density: Vibrating tube method
[2] = 100 kPa, Liquid; for electrical conductivity: Alternating current cell with electrodes; for viscosity: Capillary tube (Ostwald / Ubbelohde) method; for mass density: Vibrating tube method

O=C1CCCO1 [γ-butyrolactone] + Cn1cc[n+](C)c1.O=S(=O)([N-]S(=O)(=O)C(F)(F)F)C(F)(F)F
[1]
Conditions	mass density [kg/m3]	viscosity [mPa·s]
298.15 K	1124.59	1.71
303.15 K	1119.68	1.58
308.15 K	1114.78	1.47
313.15 K	1109.87	1.37
318.15 K	1104.96	1.28
323.15 K	1100.05	1.2

Cn1cc[n+](C)c1.O=S(=O)([N-]S(=O)(=O)C(F)(F)F)C(F)(F)F [1,3-dimethylimidazolium bis((trifluoromethyl)sulfonyl)amide]
[2]
Conditions	electrical conductivity [S/m]	mass density [kg/m3]	viscosity [mPa·s]
298.15 K	0.774	1575.42	39.43
303.15 K	0.915	1570.25	32.51
308.15 K	1.06	1565.01	27.47
313.15 K	1.2	1559.73	23.43
318.15 K	1.35	1554.49	20.25
323.15 K	1.51	1549.34	17.72
